c1ccc(P(c2ccccc2)c2ccccc2)cc1
Conditions	solubility (mole fraction)
in acetone, 303.2 K	0.089
in acetone, 308.1 K	0.12
in acetone, 313.4 K	0.14
in acetone, 318.2 K	0.19
in acetone, 323.5 K	0.25
in acetone, 327.8 K	0.33
in acetone, 333.1 K	0.42
in benzene, 303.3 K	0.069
in benzene, 308.6 K	0.095
in benzene, 312.9 K	0.12
in benzene, 318.1 K	0.16
in benzene, 323.2 K	0.22
in benzene, 328.1 K	0.28
in benzene, 333.2 K	0.37
in ethanol, 303.5 K	0.0095
in ethanol, 308.3 K	0.012
in ethanol, 313.3 K	0.016
in ethanol, 318.6 K	0.022
in ethanol, 323.2 K	0.028
in ethanol, 327.9 K	0.038
in ethanol, 333 K	0.05
in isopropanol, 303.1 K	0.0077
in isopropanol, 308.4 K	0.01
in isopropanol, 313.3 K	0.014
in isopropanol, 318.2 K	0.019
in isopropanol, 322.9 K	0.025
in isopropanol, 328.4 K	0.033
in isopropanol, 333.2 K	0.045
in toluene, 302.4 K	0.05
in toluene, 308.2 K	0.07
in toluene, 313.7 K	0.1
in toluene, 318.2 K	0.13
in toluene, 323.3 K	0.18
in toluene, 328.3 K	0.24
in toluene, 333.4 K	0.32
